{
  "source": "patent US20220323356A1",
  "about": "“METAL (HYDR)OXIDE COMPOSITE COMPRISING POORLY SOLUBLE DRUG, METHOD FOR PREPARING SAME, AND PHARMACEUTICAL COMPOSITION COMPRISING SAME” (priority 2020, published 2022)",
  "key": {"[1]": {"test": "In-vivo pharmacokinetic analysis of calcined metal (hydr)oxide-docetaxel compositions, single oral administration", "conditions": "rat, 40 mg/kg"}, "[2]": {"conditions": "in vivo; cited from earlier work"}},
  "data": [
    {"compound": "CC(=O)O[C@@]12CO[C@@H]1C[C@H](O)[C@@]1(C)C(=O)[C@H](O)C3=C(C)[C@@H](OC(=O)[C@H](O)[C@@H](NC(=O)OC(C)(C)C)c4ccccc4)C[C@@](O)([C@@H](OC(=O)c4ccccc4)[C@H]21)C3(C)C", "note": "[Docetaxel]", "values": [
      {"measurement": "AUC(0-t)", "setting": "[1]", "result": 47.5, "unit": "ng·h/mL"},
      {"measurement": "Tmax", "setting": "[1]", "result": 0.5, "unit": "h"},
      {"measurement": "half-life", "setting": "[1]", "result": 9.41, "unit": "h"},
      {"measurement": "Cmax", "setting": "[1]; Cmax, Docetaxel PO 40 mg/kg, rats", "result": 5.25, "unit": "ng/mL"},
      {"measurement": "bioavailability (%)", "setting": "[2]", "result": 8, "unit": "%"}
    ]}
  ]
}
